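In this assay, cells in 96-well plates receive the compound at five concentrations for 48 hours. Endpoints are linearly interpolated between the surrounding concentrations. TGI denotes the concentration required for complete inhibition of growth.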
Legend:
Assay in all cases: NCI anticancer screen, dose series, 48 h
LOX IMVI melanoma = test system: LOX IMVI melanoma
SK-MEL-2 melanoma = test system: SK-MEL-2 melanoma
HCT-116 colon = test system: HCT-116 colon
NCI-H23 lung = test system: NCI-H23 lung
HOP-92 NSCLC = test system: HOP-92 NSCLC
DLD-1 colon = test system: DLD-1 colon
ACHN renal = test system: ACHN renal
K-562 leukemia = test system: K-562 leukemia
OVCAR-8 ovarian = test system: OVCAR-8 ovarian
SNB-19 CNS = test system: SNB-19 CNS
LXFL 529 NSCLC = test system: LXFL 529 NSCLC
HT29 colon = test system: HT29 colon
SK-MEL-28 melanoma = test system: SK-MEL-28 melanoma
DMS 114 small cell lung = test system: DMS 114 small cell lung
NCI-H460 lung = test system: NCI-H460 lung
A549 NSCLC = test system: A549 NSCLC
RXF-631 renal = test system: RXF-631 renal
SNB-78 CNS = test system: SNB-78 CNS
SK-OV-3 ovarian = test system: SK-OV-3 ovarian
NCI-H226 lung = test system: NCI-H226 lung
SF-539 CNS = test system: SF-539 CNS
SF-295 CNS = test system: SF-295 CNS
TK-10 renal = test system: TK-10 renal
SR leukemia = test system: SR leukemia
UO-31 renal = test system: UO-31 renal
HL-60(TB) leukemia = test system: HL-60(TB) leukemia
U251 CNS = test system: U251 CNS
M19-MEL melanoma = test system: M19-MEL melanoma
RXF 393 renal = test system: RXF 393 renal
CCRF-CEM leukemia = test system: CCRF-CEM leukemia
UACC-62 melanoma = test system: UACC-62 melanoma
RPMI-8226 leukemia = test system: RPMI-8226 leukemia
SW-620 colon = test system: SW-620 colon
SK-MEL-5 melanoma = test system: SK-MEL-5 melanoma
EKVX NSCLC = test system: EKVX NSCLC
HCC-2998 colon = test system: HCC-2998 colon
MOLT-4 leukemia = test system: MOLT-4 leukemia
HOP-18 NSCLC = test system: HOP-18 NSCLC
OVCAR-4 ovarian = test system: OVCAR-4 ovarian
SN12C renal = test system: SN12C renal
NCI-H522 lung = test system: NCI-H522 lung
SF-268 CNS = test system: SF-268 CNS
M14 melanoma = test system: M14 melanoma
CAKI-1 renal = test system: CAKI-1 renal
KM12 colon = test system: KM12 colon
UACC-257 melanoma = test system: UACC-257 melanoma
IGROV1 ovarian = test system: IGROV1 ovarian
OVCAR-5 ovarian = test system: OVCAR-5 ovarian
786-0 renal = test system: 786-0 renal
MALME-3M melanoma = test system: MALME-3M melanoma
OVCAR-3 ovarian = test system: OVCAR-3 ovarian
HCT-15 colon = test system: HCT-15 colon
HOP-62 NSCLC = test system: HOP-62 NSCLC
COLO 205 colon = test system: COLO 205 colon
SNB-75 CNS = test system: SNB-75 CNS
DMS 273 small cell lung = test system: DMS 273 small cell lung
KM20L2 colon = test system: KM20L2 colon
A498 renal = test system: A498 renal

Measured: TGI

O=C1OC(CC(=O)c2ccccc2Cl)C(Cl)=C1Cl (stereo not drawn)
not listed: SNB-75 CNS | DMS 273 small cell lung | KM20L2 colon | A498 renal
> 100 µM: all other assays above

C/C(CC(=O)Nc1ccc(C)c(C)c1)=N\NC(N)=S
not listed: SNB-19 CNS | SR leukemia | M19-MEL melanoma | HOP-18 NSCLC | OVCAR-4 ovarian | SN12C renal | CAKI-1 renal | HCT-15 colon | A498 renal
> 100 µM: all other assays above

O=C(NC1C2CC3CC(C2)CC1C3)c1ccncn1 (stereo not drawn)
not listed: LOX IMVI melanoma | SK-OV-3 ovarian | TK-10 renal | SR leukemia | RXF 393 renal | RPMI-8226 leukemia | MOLT-4 leukemia | HOP-18 NSCLC
> 100 µM: all other assays above
